According to patent US20220213086A1, “AZOLE COMPOUNDS AS IRAK INHIBITORS, PREPARATION METHODS AND MEDICINAL USES THEREOF” (Eternity Bioscience Inc., priority 2020, published 2022):
Like-named read-outs stand apart in the source and are kept apart here.

Experiments:
[1] = biological target: T1, full length human IRAK4 protein (Homo sapiens, UniProt Q9NWZ3); assay: IRAK4 biochemical assay (Promega ADP-Glo IRAK4 Kinase Enzyme System); conditions: 3 nM enzyme, 2 μM MBP, 250 μM ATP, 60 min at room temperature
T1 construct: Purified full length human IRAK4 protein; purchased Signal Chem 1112-10G-125
T1 sequence (Q9NWZ3 1-460): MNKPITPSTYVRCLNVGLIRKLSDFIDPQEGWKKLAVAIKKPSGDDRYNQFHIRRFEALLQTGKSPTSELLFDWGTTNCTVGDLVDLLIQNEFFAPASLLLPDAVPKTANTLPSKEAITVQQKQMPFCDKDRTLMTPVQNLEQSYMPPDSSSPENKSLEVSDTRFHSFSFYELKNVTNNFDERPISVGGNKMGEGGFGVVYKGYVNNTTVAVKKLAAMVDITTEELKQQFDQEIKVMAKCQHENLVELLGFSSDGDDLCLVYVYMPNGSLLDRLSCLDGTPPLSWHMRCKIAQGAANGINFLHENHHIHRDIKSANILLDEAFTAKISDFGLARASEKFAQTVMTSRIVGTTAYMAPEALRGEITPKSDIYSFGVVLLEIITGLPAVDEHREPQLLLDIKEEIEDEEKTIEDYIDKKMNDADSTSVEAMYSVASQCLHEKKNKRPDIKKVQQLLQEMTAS
Procedure: For the routine compound screening, an IRAK4 kinase assay was performed as follows using Promega ADP-Glo IRAK4 Kinase Enzyme System (Promega, Cat #2198-AD). Purified full length human IRAK4 protein (Signal Chem; Cat #1112-10G-125) was diluted to a concentration 6 nM in assay buffer (25 mM MOPS, pH 7.2, 12.5 mM β-glycerol-phosphate, 25 mM MgCl2, 5 mM EGTA, 2 mM EDTA, 0.0025% Brij-35, add 0.25 mM DTT to Kinase Assay Buffer prior to use) containing IRAK4 inhibitor at 2× the final concentration in 0.4% DMSO. The reaction was performed in PerkinElmer Proxiplate-384 plus white plate (Fisher Scientific, Cat #50-905-2761) and started by the addition of an equal volume of the assay buffer containing 4 μM native swine myelin basic protein (MBP) and 500 μM ATP to achieve a final concentration of 3 nM enzyme, 2 μM MBP, 250 μM ATP, 1×compound, and 0.2% DMSO. The kinase reaction was allowed to run for 60 min at room temperature (25-27° C.), then 5 μL of ADP-Glo was added to the reaction in each well followed by 40 minutes-incubation at RT. To detect converted ATP, 10 μL Detection Buffer was added into each well and Incubate at RT in dark for 30 minutes. Finally, luminescence was read using Tecan with 1000 ms of integration time. The luminescent signal positively correlates with ADP amount and kinase activity. Data was analyzed by GraphPad Prism and IC50 was calculated using function log(inhibitor) vs. response—Variable slope (four parameters). Percentage of inhibition was calculated as below:
% inhibition=(1−(Reading(Sample)−Reading(Negative Control))/(Reading(Positive Control)−Reading(Negative Control)))×100%
The 0% inhibition value comes from the Reading of Positive Control wells having 0 nM compound. The 100% inhibition value comes from the Reading of Negative Control wells having no IRAK4 kinase.

[2] = test system: IRAK4 (TNFα in human peripheral blood mononuclear cells); assay: IRAK4 human PBMC TNFα cell based assay (AlphaLISA); conditions: TNFα readout
Procedure: In this assay, serially diluted compounds were incubated with 1×10^4 human peripheral blood mononuclear cells (PBMCs) from STEMCELL (Cat #70025.1) per well of 384-well plate (Fisher Scientific; 50-905-2761) and cultured with TexMACS medium (Miltenyi, Cat #130-097-196), stimulated by R848 (0.5 μM) or IL-1β (10 ng/ml). Plates were covered with lids and incubated for 4 h (R848, Fisher Scientific, Cat #NC9801605) or 24 h (IL-1β, Fisher Scientific, Cat #ENRIL1BI) at 37° C. in a humidified tissue-culture incubator. After a brief centrifugation at 1000 rpm for 5 minutes, 5 μl of culture medium was used for the measurement of the TNFα amount using TNFα (human) AlphaLISA Detection Kit (PerkinElmer, Cat #AL208C) according to manufacturer's protocol. A biotinylated anti-TNFα antibody binds to the Streptavidin-coated Donor beads while another anti-TNFα antibody is conjugated to AlphaLISA Acceptor beads. In the presence of the TNFα, the beads come into close proximity. The excitation of the Donor beads causes the release of singlet oxygen molecules that triggers a cascade of energy transfer in the Acceptor beads, resulting in a sharp peak of light emission at 615 nm. AlphaLISA assay plates were read using PHERAstar. Percentage of inhibition was calculated as below:
% inhibition=(1−(Reading(Sample)−Reading(Negative Control))/(Reading(Positive Control)−Reading(Negative Control)))×100% […]

IC50 [1] [nM]	IRAK4 Biochemical Assay Max Inhibition (%) [1] [%]	IC50 ([2]; human PBMCs stimulated by IL-1β (10 ng/ml), 24 h, read-out: IRAK4 PBMC AlphaLISA IL-1β (IC50)) [nM]	IC50 ([2]; human PBMCs stimulated by R848 (0.5 μM), 4 h, read-out: IRAK4 PBMC AlphaLISA R848 (IC50)) [nM]	Compound
14	93.0	26	21	CC[C@@H]1[C@H](F)C(=O)N[C@@H]1COc1nsc2cc(C(N)=O)c(OC)cc12 [Example 2]
240	98.0			COc1cc2c(OC[C@@H]3CCC(=O)N3)nsc2cc1C(N)=O [Example 1, (S)-5-methoxy-3-((5-oxopyrrolidin-2-yl)methoxy)benzo[d]isothiazole-6-carboxamide]
